# In patent US20060078961A1, “Systems and methods for rapidly changing the solution environment around sensors” (priority 2002, published 2006):
# System: PC-12 cell
# Conditions: flow rate 3.24 mm/s, scanning speed 250 μm/s
# Excerpt: The flow rate was 3.24 mm/s and the cell scanning speed was 250 μm/s.
# The width of each channel is 100 μm, the thickness is 50 μm, and the interchannel spacing is 25 μm. The procedure used for fabricating the microchannels and for patch clamping are identical to that described in Example 2 (see above). The patch clamped cell used was a PC-12 cell, which was placed between 10 to 20 micrometers away from the outlets of the microchannels. Channels 1, 3, 5 and 7 were filled with PBS buffer, while channels 2, 4 and 6 were filled with acetylcholine. The flow rate of the fluid streams was 6.8 mm/s.
# The channel structure and experimental setup used in Example 3 can be used to carry out dose-response measurements, in which the concentrations of the ligands in each of the ligand streams differ by predetermined amounts. […] In this 7-channel structure, channels 1, 3, 5 and 7 were filled with PBS buffer, whereas channels 2, 4, and 6 were filled with 1 μM, 12 μM, and 200 μM nicotine, respectively. The flow rate used was 3.24 mm/s and the cell-scanning speed was 250 μm/s. The patch-clamped cell was placed between 10 to 20 μm away from the outlet of the microchannel.
smiles,measurement,setting,value
CN1CCCC1c1cccnc1 (stereo not drawn) [nicotine],Whole-cell current response,1 μM nicotine,barely discernible
same,Whole-cell current peak,12 μM nicotine,detected with good signal-to-noise ratio
same,Current peak at 200 μM relative to peak for 12 μM,200 μM vs 12 μM nicotine,15 to 20 times
